Source: patent publication US6166290A, “Glutathione-S-conjugate transport in plants” (The Trustees of the University of Pennsylvania, priority 1997, dated 2000)

Columns and labels:
[1] = target: T1, YCF1 (vacuolar membrane vesicles purified from DTY165 cells) (Saccharomyces cerevisiae, UniProt P39109); assay: [3H]DNP-GS uptake by vacuolar membrane vesicles purified from DTY165 cells; assay type: biochemical
T1 construct: endogenous in cells; host or cells: S. cerevisiae DTY165 (wild type YCF1), vacuolar membrane vesicles
T1 sequence (P39109 whole entry): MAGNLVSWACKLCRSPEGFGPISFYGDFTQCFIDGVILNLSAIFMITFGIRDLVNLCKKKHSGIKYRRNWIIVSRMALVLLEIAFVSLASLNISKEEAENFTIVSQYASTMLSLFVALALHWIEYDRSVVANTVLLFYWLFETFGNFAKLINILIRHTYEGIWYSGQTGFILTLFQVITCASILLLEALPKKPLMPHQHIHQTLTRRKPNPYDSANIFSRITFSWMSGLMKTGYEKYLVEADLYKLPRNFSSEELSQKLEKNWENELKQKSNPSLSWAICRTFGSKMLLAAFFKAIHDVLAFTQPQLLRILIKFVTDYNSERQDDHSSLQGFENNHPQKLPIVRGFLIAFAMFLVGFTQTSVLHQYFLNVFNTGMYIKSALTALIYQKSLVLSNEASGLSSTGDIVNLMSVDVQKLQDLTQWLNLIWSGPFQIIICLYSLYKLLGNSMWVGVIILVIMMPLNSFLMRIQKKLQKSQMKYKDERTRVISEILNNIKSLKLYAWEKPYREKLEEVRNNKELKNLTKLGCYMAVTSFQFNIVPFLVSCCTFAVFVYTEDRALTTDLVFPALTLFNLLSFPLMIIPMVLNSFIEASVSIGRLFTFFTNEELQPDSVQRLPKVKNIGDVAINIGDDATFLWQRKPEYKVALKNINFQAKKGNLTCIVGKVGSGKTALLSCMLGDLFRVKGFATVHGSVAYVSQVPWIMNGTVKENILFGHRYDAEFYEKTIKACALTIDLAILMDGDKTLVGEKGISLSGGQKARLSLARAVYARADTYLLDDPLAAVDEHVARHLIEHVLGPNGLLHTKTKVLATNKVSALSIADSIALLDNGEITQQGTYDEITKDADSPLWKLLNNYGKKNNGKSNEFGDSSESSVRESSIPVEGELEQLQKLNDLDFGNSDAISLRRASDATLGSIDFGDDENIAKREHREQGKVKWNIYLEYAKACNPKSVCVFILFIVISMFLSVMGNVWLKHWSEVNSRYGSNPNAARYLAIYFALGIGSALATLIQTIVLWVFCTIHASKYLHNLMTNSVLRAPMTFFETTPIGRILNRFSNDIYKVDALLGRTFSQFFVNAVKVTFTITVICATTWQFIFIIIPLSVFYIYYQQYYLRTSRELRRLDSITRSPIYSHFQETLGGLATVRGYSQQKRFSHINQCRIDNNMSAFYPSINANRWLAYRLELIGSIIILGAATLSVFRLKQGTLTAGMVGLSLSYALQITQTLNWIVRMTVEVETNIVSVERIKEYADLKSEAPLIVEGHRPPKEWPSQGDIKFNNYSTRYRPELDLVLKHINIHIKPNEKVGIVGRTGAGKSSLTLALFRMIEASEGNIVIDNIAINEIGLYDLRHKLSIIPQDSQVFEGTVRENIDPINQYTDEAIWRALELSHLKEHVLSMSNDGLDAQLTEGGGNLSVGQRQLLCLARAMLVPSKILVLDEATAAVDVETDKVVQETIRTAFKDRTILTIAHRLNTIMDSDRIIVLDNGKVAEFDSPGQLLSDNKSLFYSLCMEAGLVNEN
Summary of the method: (§1)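 ATP-dependent [3H]DNP-GS (66.2 μM) transport measured by filtration and scintillation counting of Ficoll-purified yeast vacuolar vesicles (DTY165 wild type; DTY167 ycf1Δ), 1–60 min at 25 °C in sorbitol/Tris-Mes pH 8.0 with 3 mM ATP, 3 mM MgSO4 and gramicidin-D. Nonenergized uptake without ATP/Mg2+.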

[2] = target: T1, YCF1 (vacuolar membrane vesicles purified from DTY165 cells); assay: biochemical; assay type: biochemical
Summary of the method: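 Vacuolar vesicles from wild-type (DTY165) or ycf1Δ (DTY167) yeast, washed free of DTT/EGTA into glycerol/Tris-Mes pH 8.0. MgATP-energized, uncoupler-insensitive uptake of 109Cd2+, GSH or purified radiolabeled Cd·GSn complexes measured at 25°C. Medium: 3 mM ATP/MgSO4, ATP-regenerating system, 5 μM gramicidin-D, Tris-Mes pH 8.0; washes contained 100 μM CdSO4.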

[3] = tested on: vacuolar membrane vesicles purified from DTY167 cells (ycf1Δ mutant); assay type: biochemical, Saccharomyces cerevisiae
Experimental: In experiments involving cadmium transport, dithiothreitol and EGTA were removed from the suspension medium to prevent the attenuation of YCF1-dependent Cd^2+ transport otherwise exerted by these compounds. Vesiculated vacuolar membranes were subjected to three cycles of 50-fold dilution into simplified suspension medium (1.1 M glycerol, 5 mM Tris-Mes, pH 8.0), centrifugation at 100,000× g for 35 minutes and resuspension in the same medium before use.
Singly radiolabeled ^109 Cd.GSn and doubly radio-labeled ^109 Cd[^3 H].GS^n complexes were prepared by sequential gel-filtrationand anion-exchange chromatography of the reaction products generated by incubating 20 mM ^109 CdSO4 (78.4 mCi/mmol) with 40 mM GSH or 40 mM [^3 H]GSH (240 mCi/mmol) in 15 ml 10 mM phosphate buffer (pH 8.0) containing 150 mM KNO3 at 45° C. for 24 hours. For gel-filtration, 2 ml aliquots of the reaction mixture were applied to a column (40×1.5 cm ID) packed with water-equilibrated Sephadex G-1 5, eluted with deionized water and ^109 Cd and/or ^3 H in the fractions was measured by liquid scintillation counting. The fractions encompassed by each of the two ^109 Cd.GSn peaks identified were pooled, lyophilized and redissolved in 4 ml of loading buffer (5 mM Tris-Mes, pH 8.0). For anion-exchange chromatography, 0.5 ml aliquots of the resuspended lyophilizates from gel-filtration chromatography were applied to a Mono-Q HR5/5 column (Pharmacia) equilibrated with the same buffer. Elution was with a linear gradient of NaCl (0.5 ml/minute; 0-500 mM) dissolved in loading buffer. The individual fractions corresponding to the major peaks of ^109 Cd obtained from the Mono-Q column (one each for the peaks resolved by gel-filtration chromatography) were pooled, lyophilized and resuspended in 4 ml deionized water after liquid scintillation counting.
MgATP-energized, uncoupler-insensitive ^109 Cd^2+ uptake by vacuolar membrane vesicles was measured at 25° C. in 200 μl reaction volumes containing 3 mM ATP, 3 mM MgSO4, 5 μM gramicidin-D, 10 mM creatine phosphate, 16 units/ml creatine kinase, 50 mM KCl, 400 mM sorbitol, 25 mM Tris-Mes (pH 8.0) and the indicated concentrations of ^109 CdSO4, GSH or ^109 Cd- and/or ^3 H-labeled purified Cd.GSn complexes as described herein except that the wash media contained 100 μM CdSO4 in addition to sorbitol (400 mM) and Tris-Mes (3 mM, pH 8.0).

YCF1-specific mRNA = settings: 24 hour pretreatment; CdSO4 200 μM, CDNB 150 μM
[4] = tested on: vacuolar membrane vesicles purified from DTY167 cells (ycf1Δ mutant); assay type: biochemical, Saccharomyces cerevisiae; settings: 5 μM gramicidin D, GSH, GSSG 1 mM, GS-conjugates 100 μM
Summary of the method: as §1

AtMRP1 = target: T2, AtMRP1 (Arabidopsis thaliana, UniProt Q9C8G9); assay: AtMRP1-dependent uptake by membrane vesicles from pYES3-AtMRP1-transformed DTY168 cells; assay type: biochemical; settings: MgATP-dependent, uncoupler-insensitive
T2 construct: S. cerevisiae DTY168 (ycf1 null) vacuolar-enriched membrane vesicles
T2 sequence (Q9C8G9 whole entry): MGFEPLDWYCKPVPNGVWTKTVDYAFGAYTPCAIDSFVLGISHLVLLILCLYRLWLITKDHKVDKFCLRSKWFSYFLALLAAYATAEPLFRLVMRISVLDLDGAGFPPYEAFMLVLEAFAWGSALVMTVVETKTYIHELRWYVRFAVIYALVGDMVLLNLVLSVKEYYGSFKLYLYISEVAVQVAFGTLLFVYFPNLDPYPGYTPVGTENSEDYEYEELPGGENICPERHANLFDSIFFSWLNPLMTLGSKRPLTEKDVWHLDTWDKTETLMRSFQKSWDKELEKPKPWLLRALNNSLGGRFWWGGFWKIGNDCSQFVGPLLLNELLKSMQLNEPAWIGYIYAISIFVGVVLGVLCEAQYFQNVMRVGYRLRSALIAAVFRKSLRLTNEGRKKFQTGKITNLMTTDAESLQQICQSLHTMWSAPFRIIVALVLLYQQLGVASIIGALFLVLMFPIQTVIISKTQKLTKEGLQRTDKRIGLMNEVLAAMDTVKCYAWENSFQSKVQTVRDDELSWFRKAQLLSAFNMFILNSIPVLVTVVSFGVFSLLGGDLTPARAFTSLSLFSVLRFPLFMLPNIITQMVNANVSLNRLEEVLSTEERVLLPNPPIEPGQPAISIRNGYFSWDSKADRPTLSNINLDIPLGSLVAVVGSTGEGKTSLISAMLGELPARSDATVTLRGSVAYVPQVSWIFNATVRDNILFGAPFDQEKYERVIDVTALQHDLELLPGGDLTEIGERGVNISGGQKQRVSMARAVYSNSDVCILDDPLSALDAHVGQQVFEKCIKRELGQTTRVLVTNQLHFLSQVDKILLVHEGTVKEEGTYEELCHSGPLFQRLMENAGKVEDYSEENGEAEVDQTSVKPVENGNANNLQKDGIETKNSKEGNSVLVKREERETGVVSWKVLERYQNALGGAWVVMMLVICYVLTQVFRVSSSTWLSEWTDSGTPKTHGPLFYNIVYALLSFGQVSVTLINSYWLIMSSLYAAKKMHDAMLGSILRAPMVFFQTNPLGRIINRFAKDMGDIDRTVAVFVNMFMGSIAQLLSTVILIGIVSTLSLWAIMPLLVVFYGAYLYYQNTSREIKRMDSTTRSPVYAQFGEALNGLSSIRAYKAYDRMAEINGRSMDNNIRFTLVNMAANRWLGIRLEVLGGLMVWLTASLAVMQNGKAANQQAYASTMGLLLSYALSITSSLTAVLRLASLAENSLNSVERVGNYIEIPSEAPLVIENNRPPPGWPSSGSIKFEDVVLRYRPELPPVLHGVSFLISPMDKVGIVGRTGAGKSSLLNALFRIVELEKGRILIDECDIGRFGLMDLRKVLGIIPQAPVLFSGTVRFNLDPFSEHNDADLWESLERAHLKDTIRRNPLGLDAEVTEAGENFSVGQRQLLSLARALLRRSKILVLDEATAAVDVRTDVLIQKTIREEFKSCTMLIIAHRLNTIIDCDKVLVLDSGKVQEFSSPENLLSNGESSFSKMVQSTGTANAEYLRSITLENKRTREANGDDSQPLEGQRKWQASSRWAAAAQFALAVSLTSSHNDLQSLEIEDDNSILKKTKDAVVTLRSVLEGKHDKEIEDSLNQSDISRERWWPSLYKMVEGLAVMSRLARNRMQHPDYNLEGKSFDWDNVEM
Experimental: S. cerevisiae strain DTY168 (MATα his6, leu2-3, -112, ura3-52 ycf1::hisG) was transformed with pYES3-AtMRP1 or empty vector lacking the AtMRP1 insert (pYES3) by the LiOAc/PEG method (Giest et al., 1991, Yeast 7:253-263) and selected for uracil prototrophy by plating on AHC medium containing tryptophan (Kim et al., 1994, supra).
For the preparation of membrane vesicles, 15 ml volumes of stationary phase cultures of the transformants were diluted into 1 L of fresh AHC medium and grown to an OD600 nm of about 1.2. Membrane vesicles were purified as described herein and in Kim et al. (1995, supra).
[…] μl reaction volumes containing 3 mM ATP, 3 mM MgSO4, 5 μM gramicidin-D, 10 mM creatine phosphate, 16 units/ml creatine kinase, 50 mM KCl, 1 mg/ml BSA, 400 mM sorbitol, 25 mM Tris-Mes ([…]).
(§2) Cells were grown and vacuolar membrane-enriched vesicles were prepared as described (Kim et al., 1995, J Biol. Chem. 270:2630-2635-). […] Uptake was terminated by the addition of 1 ml ice-cold wash medium (400 mM sorbitol/3 mM Tris-Mes, pH 8.0) and vacuum filtration of the suspension through prewetted Millipore HA cellulose nitrate filters (pore size 0.45 μm). The filters were rinsed twice with wash medium, and the retained radioactivity was determined by liquid scintillation counting. Nonenergized uptake was estimated by the same procedure except that ATP was omitted from the uptake medium.

AtMRP2 = target: T3, AtMRP2 (Arabidopsis thaliana, UniProt Q42093); assay: AtMRP2-dependent uptake by membrane vesicles from pYES3-AtMRP2-transformed DTY168 cells; assay type: biochemical; settings: MgATP-dependent, uncoupler-insensitive
T3 construct: S. cerevisiae DTY168 (ycf1 null) vacuolar-enriched membrane vesicles
T3 sequence (Q42093 whole entry): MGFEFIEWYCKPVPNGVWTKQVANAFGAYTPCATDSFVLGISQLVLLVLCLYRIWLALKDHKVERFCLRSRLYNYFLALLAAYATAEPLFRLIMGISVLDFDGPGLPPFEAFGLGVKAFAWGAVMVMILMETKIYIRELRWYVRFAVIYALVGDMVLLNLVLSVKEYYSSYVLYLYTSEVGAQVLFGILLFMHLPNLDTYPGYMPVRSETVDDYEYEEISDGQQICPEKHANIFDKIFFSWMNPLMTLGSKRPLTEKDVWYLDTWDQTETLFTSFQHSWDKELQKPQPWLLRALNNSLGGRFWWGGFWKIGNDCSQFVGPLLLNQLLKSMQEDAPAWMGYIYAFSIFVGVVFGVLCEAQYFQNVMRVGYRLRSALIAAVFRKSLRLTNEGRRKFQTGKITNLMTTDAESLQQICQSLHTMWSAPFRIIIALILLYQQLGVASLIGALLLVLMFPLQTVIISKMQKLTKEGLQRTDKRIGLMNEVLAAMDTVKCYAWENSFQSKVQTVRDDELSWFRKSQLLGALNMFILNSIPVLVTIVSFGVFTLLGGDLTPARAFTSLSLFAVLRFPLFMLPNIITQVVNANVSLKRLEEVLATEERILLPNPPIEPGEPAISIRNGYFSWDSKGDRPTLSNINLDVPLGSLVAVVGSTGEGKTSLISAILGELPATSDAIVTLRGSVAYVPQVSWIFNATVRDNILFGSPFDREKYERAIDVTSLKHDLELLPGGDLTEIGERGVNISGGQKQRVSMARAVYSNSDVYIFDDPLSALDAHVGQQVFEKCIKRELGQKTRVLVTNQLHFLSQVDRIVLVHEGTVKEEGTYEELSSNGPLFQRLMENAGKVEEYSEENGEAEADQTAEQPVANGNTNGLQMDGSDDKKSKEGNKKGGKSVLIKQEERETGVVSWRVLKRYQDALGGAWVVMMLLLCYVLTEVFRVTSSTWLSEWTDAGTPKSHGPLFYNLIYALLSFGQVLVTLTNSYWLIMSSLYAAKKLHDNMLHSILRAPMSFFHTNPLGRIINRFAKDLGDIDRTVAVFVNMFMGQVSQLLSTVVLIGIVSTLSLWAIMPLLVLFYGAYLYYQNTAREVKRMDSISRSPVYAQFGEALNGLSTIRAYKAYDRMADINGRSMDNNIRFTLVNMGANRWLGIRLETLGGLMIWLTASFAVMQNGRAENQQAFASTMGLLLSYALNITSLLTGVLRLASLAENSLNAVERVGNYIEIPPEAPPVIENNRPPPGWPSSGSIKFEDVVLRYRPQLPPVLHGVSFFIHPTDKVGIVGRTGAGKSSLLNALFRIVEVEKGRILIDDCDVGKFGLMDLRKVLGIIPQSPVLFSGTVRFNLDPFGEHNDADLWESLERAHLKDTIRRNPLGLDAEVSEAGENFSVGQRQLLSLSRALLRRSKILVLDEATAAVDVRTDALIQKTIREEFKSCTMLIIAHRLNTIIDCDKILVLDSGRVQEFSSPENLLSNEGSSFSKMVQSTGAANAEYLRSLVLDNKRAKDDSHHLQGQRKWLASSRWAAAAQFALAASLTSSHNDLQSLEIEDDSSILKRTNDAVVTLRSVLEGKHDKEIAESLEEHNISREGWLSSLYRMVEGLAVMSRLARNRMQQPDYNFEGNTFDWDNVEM
Experimental: as §2
Membranes from DTY168/pYES3-AtMRP2 cells were incubated for 10 minutes in standard uptake medium containing 61.3 μM [^3 H]DNP-GS after which time 200 mM glucose and 50 units/ml hexokinase (Type F-300 from baker's yeast) were added. […] Control samples were treated identically except that no additions were made after the initial 10 minute incubation period.

barley vacuoles = settings: cited from earlier work
[5] = 80 μM 109CdSO4, compound 1 mM, 5 μM gramicidin-D
[6] = 3 mM MgATP, 80 μM 109CdSO4, compound 1 mM, 5 μM gramicidin-D

For `[Cd+2]` [Cd^2+], the “increase of [3H]DNP-GS uptake into vesicles from pretreated cells” value ([1]; 24 hour pretreatment, CdSO4 200 μM, CDNB 150 μM, 66.2 μM DNP-GS) was 1.6 fold, the “109Cd uptake, -MgATP” value [2, 5] was 5.8 ± 2.4 nmol/mg/10 minutes and the “MgATP-dependent, uncoupler-insensitive 109Cd2+ uptake rate” value ([2]; 80 μM Cd2+, 1 mM GSH) was 4.5 nmol/mg/min. For the same compound, the “109Cd uptake, +MgATP” value [2, 6] was 5.6 ± 1.5 nmol/mg/10 minutes, the “increase of 109Cd.GS2 uptake into vesicles from pretreated cells” value ([2]; 24 hour pretreatment, CdSO4 200 μM, CDNB 150 μM, 50 μM Cd.GS2) was 1.4 fold and the “109Cd uptake, -MgATP” value [3, 5] was 4.3 ± 1.3 nmol/mg/10 minutes. The “MgATP-dependent, uncoupler-insensitive 109Cd2+ uptake rate” value ([3]; 80 μM Cd2+, 1 mM GSH) was 0.8 nmol/mg/min, the “109Cd uptake, +MgATP” value [3, 6] was 4.6 ± 2.1 nmol/mg/10 minutes and the “increase of YCF1-specific mRNA level” value (YCF1-specific mRNA) was 1.9 fold.

With `CCc1cccc(C)c1N(C(=O)CSC[C@H](NC(=O)CC[C@H](N)C(=O)O)C(=O)NCC(=O)O)C(C)COC` (stereo partly shown) [Metolachlor-GS] the “MgATP-dependent, uncoupler-insensitive DNP-GS uptake plus compound” value ([1]; 5 μM gramicidin D, GSH, GSSG 1 mM, GS-conjugates 100 μM) was 27.6 ± 0.9 nmol/mg/10 minutes, the “MgATP-dependent, uncoupler-insensitive DNP-GS uptake as percentage of control” value ([1]; 5 μM gramicidin D, GSH, GSSG 1 mM, GS-conjugates 100 μM, 10 min) was 57.7% and the inhibition at 100 µM ([1]; 100 μM compound) was ~50%. For the same compound, the “MgATP-dependent, uncoupler-insensitive DNP-GS uptake plus compound” value [4] was 4.8 ± 0.7 nmol/mg/10 minutes, the “MgATP-dependent, uncoupler-insensitive DNP-GS uptake as percentage of control” value ([4]; 10 min) was 73.8% and the “Vmax for AtMRP1-dependent uptake” value (AtMRP1) was 17.5 ± 5.2 nmol/mg/10 min. The “Vmax for AtMRP1-dependent uptake” value (AtMRP1; listed as metolachlor-GS) was 17.5±5.2 nmol/mg/10 min, the “Vmax for AtMRP2-dependent uptake” value (AtMRP2) was 136.0 ± 28.1 nmol/mg/10 min and the “Vmax for AtMRP2-dependent uptake” value (AtMRP2; listed as metolachlor-GS) was 136.0±28.1 nmol/mg/10 min. The Km estimated previously (barley vacuoles) was 40 to 60 µM.
